# Read-outs that look alike come from different tables or passages of the source.
# T1: xlODC1 (Xenopus laevis, UniProt P27120)
# T1 construct: gene odc1-a
# T1 sequence (P27120 1-460): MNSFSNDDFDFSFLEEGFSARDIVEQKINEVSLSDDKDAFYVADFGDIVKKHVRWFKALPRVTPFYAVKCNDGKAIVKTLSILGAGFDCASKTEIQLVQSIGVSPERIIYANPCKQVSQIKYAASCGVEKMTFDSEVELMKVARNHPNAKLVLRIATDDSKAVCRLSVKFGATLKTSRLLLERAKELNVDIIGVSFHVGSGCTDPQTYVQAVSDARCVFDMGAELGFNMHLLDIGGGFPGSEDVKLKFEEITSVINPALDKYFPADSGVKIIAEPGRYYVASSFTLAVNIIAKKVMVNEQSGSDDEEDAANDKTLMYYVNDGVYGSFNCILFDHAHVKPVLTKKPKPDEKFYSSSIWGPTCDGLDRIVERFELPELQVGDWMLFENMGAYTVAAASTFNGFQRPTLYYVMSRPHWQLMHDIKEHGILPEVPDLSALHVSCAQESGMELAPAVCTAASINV
# B1: xlAZIN2 (xlODC2, xlLDC, xlLODC) (Xenopus laevis) (protein)
# chain: MQGYIQESDFNLVEEGFLARDLMEEIINEVSQTEDRDAFFVADLGDVVRKHLRFLKALPRVKPFYAVKCNSSKGVVKILAELGAGFDCASKTEIELVQDVGVAPERIIYANPCKQISQIKYAAKNGVQMMTFDNEVELSKVSRSHPNARMVLRIATDDSKSSARLSVKFGAPLKSCRRLLEMAKNLSVDVIGVSFHVGSGCTDSKAYTQAISDARLVFEMASEFGYKMWLLDIGGGFPGTEDSKIRFEEIAGVINPALDMYFPESSDVQIIAEPGRYYVASAFSLAVNVIAKKEVEHSVSDDEENESSKSIMYYVNDGVYGSFNCLVFDHAHPKPILHKKPSPDQPLYTSSLWGPTCDGLDQIAERVQLPELHVGDWLLFENMGAYTIAASSNFNGFQQSPVHYAMPRAAWKAVQLLQRGLQQTEEKENVCTPMSCGWEISDSLCFTRTFAATSII
# Experiments:
# Details in all cases: anti-Flag purified enzyme, less than 10% of activity recovered on purification, assay buffer: 0.1 mM pyridoxal phosphate, 1 mM dithiothreitol, 37°C
# xlODC1 = target: T1, xlODC1; experiment: decarboxylase activity, Michaelis-Menten fit; assay type: biochemical
# [1] = substrate: NCCCC[C@H](N)C(=O)O; experiment: decarboxylase activity, Michaelis-Menten fit; assay type: biochemical, Xenopus laevis
# purified protein = substrate: NCCC[C@H](N)C(=O)O; experiment: purified protein
molecule,measurement,setting,value
NCCCC[C@H](N)C(=O)O [L-lysine],Km,"xlODC1; unit inferred, mM from, read-out: Km^Lys",34.9 ± 6.1 mM
NCCC[C@H](N)C(=O)O [L-ornithine],Km,xlODC1; read-out: Km^Orn,0.103 ± 0.027 mM
B1,Km,[1],0.807 ± 0.102 mM
same,Km,purified protein,3.08 ± 0.81 mM
